Source: patent publication US20260226037A1, “MICROTUBULE TARGETING AGENTS” (ARIEL SCIENTIFIC INNOVATIONS LTD., priority 2022, published 2026)

Key:
HUVEC cells [1] = test: Disruption of pre-formed HUVEC capillary-like tubes; assay type: cell-based, human; conditions: tubes formed 4 hours, then 2 hours exposure
Description: The analysis of the anti-vascular effect was performed by seeding HUVEC cells on Matrigel matrix, and incubated them until formation of capillary-like tubes, reminiscent of newly formed vessels after 4 hours.

NALM6 cells = test: XTT cytotoxicity, NALM6; assay type: cell-based; conditions: Homo sapiens, NALM-6; NALM6, acute lymphoblastic leukemia, non-resistant; read-out: IC50
MM1.S cells = test: XTT cytotoxicity, MM1.S; assay type: cell-based; conditions: Homo sapiens, multiple myeloma, non-resistant, read-out: IC50
In short: (§1)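 Cytotoxicity against the tumour cell lines was determined by XTT assay.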

RPMI-DOX40 cells = test: XTT cytotoxicity, RPMI-DOX40; assay type: cell-based
In short: as §1

HUVEC cells [2] = test: HUVEC tube formation on Matrigel; assay type: cell-based, human
Description: Endothelial cells seeded on Matrigel are able to form three-dimensional capillary structures with a lumen resembling the first angiogenesis steps.
The analysis of anti-angiogenic effect was performed by exposing HUVEC cells to the compounds and seeding them on Matrigel matrix for 4 hours. During this time, control group formed an extensive network lumen-like structure as compared to partially disorganized cells treated with lower doses of SMS077 and SMS182 and disorganized and rounded cells treated with higher doses of the molecules.

[3] = Xenograft murine myeloma model, body weight and toxicity signs; assay type: in vivo; conditions: intraperitoneally, during the experiment
Description: In vivo anti-cancer efficacy of the molecules was evaluated in a xenograft murine myeloma model. Male SCID mice (6-8 weeks old) were maintained in accordance with Institutional Animal Care Use Committee guidelines. Mice were housed in the Animal Research Facility of Ariel University and experiments were performed in accordance with approved protocols. During the experiment, RPMI8226 myeloma cells in exponential growth were harvested from culture, washed three times with sterile PBS, counted and resuspended in sterile PBS (1.5×10^7cells mouse/0.1 ml PBS) and subcutaneously injected on the right flank of male C.B-17/IcrHsd-Prkdc-scid, […] mice. After two weeks of cells injection, when tumors reached a size between 30-60 mm3, mice were assigned into different groups (n=3-5) and started receiving treatment. Body weights were determined twice weekly along with tumor volume {V=[length×(width)2]/2}measurements using electronical caliper. Mice were sacrificed when mean tumor volume of vehicle treated group reached 1500 mm3, or mice appeared moribund to prevent unnecessary morbidity.
The weight of the tumors was measured at the end of the experiment and expressed as mean tumor weight per group. Body weight is expressed as mean body mice weight per group.

RPMI-LR5 cells = test: XTT cytotoxicity, RPMI-LR5; assay type: cell-based
In short: as §1

MCF7-VP cells = test: XTT cytotoxicity, MCF7-VP; assay type: cell-based
In short: as §1

[4] = system: metastatic breast adenocarcinoma cells; test: XTT cytotoxicity, metastatic breast adenocarcinoma cells; assay type: cell-based; conditions: highest of the range
Description: (§2) The cytotoxic activity of the novel family was evaluated against various tumor cells, including myeloma cells, acute lymphoblastic leukemia cells, acute monocytic leukemia cells, chronic myelogenous leukemia cells, pancreatic cancer cells, breast cancer cells, uterine sarcoma cells, cervix adenocarcinoma cells, ovary cancer cells, melanoma cells, osteosarcoma cells, prostate cancer cells, lung cancer cells, neuroblastoma cells and colorectal adenocarcinoma cells by XTT assay.

NCI-H69 cells = test: XTT cytotoxicity, NCI-H69; assay type: cell-based; conditions: Homo sapiens; NCI-H69, small cell lung carcinoma, non-resistant
Description: as §2

HUVEC cells [5] = test: HUVEC wound scratch-healing migration assay; assay type: cell-based, human
From the text: During angiogenesis, endothelial cells proliferate and migrate chemotactically towards angiogenic signals secreted by tumor cells.

N6/ADR cells = test: XTT cytotoxicity, N6/ADR; assay type: cell-based
A2780 cells = test: XTT cytotoxicity, A2780; assay type: cell-based; conditions: Homo sapiens; A2780, ovarian carcinoma, non-resistant
Description: as §2

MM1.R cells = test: XTT cytotoxicity, MM1.R; assay type: cell-based; conditions: MM.1R; MM1.R, multiple myeloma, dexamethasone resistant; read-out: IC50
In short: as §1

[6] = system: different cancer cell lines; test: XTT cytotoxicity, various tumor cells; assay type: cell-based; conditions: XTT assay
Description: as §2

myeloma cell lines = test: XTT cytotoxicity, 10 different myeloma cell lines; assay type: cell-based; conditions: range over 10 different myeloma cell lines
Description: as §2
When this family of compounds were tested on different cell lines from the same type of tumor with different phenotypes there were no significant differences in cytotoxic sensitivity.

[7] = system: colchicine binding site on tubulin protein; test: EBI competition assay, NALM6 cells; assay type: cell-based
MCF7 cells = test: XTT cytotoxicity, MCF7; assay type: cell-based; conditions: Homo sapiens; MCF7, breast adenocarcinoma, non-resistant
In short: as §1

[8] = system: acute lymphoblastic leukemia cells; test: XTT cytotoxicity, acute lymphoblastic leukemia cells; assay type: cell-based; conditions: lowest of the range
Description: as §2

[9] = system: colchicine binding site on tubulin protein; test: EBI competition assay, RPMI-8226 cells; assay type: cell-based; conditions: RPMI-8226 living cells

SMILES: CCCCCOC(=O)c1[nH]c2c(c1C)C(=O)CC(c1ncco1)C2 (stereo not shown) [SMS077, pentyl 3-methyl-6-(oxazol-2-yl)-4-oxo-4,5,6,7-tetrahydro-1H-indole-2-carboxylate]
- disruption of pre-formed capillary-like tube network (HUVEC cells [1]): disrupted the integrity of the network in a dose dependent manner
- IC50 (NALM6 cells): 19 nM
- IC50 (MM1.S cells): 33 nM
- IC50 (RPMI-DOX40 cells; RPMI-DOX40, multiple myeloma, P-gp overexpression, read-out: IC50): 25 nM
- IC50 ratio between resistant and non-resistant cells (RPMI-DOX40 cells; RPMI-DOX40 / RPMI 8226): 0.962
- sensitivity of resistant subline vs parental cells (RPMI-DOX40 cells; RPMI-Dox40 vs RPMI8226 (RPMI-S)): no difference in their sensitivity
- inhibition of tubule formation (HUVEC cells [2]; 4 hours): dose dependent inhibition of tubule formation
- concentration at which tubule formation was significantly inhibited (HUVEC cells [2]; 4 hours of treatment): 75 nM
- body weight and other signs of potential toxicity [3]: No significant changes in body weight or other signs of potential toxicity
- IC50 (RPMI-LR5 cells; RPMI-LR5, multiple myeloma, melphalan resistant, read-out: IC50): 19 nM
- IC50 ratio between resistant and non-resistant cells (RPMI-LR5 cells; RPMI-LR5 / RPMI 8226): 0.731
- sensitivity of resistant subline vs parental cells (RPMI-LR5 cells; RPMI-LR5 vs RPMI8226 (RPMI-S)): no difference in their sensitivity
- IC50 (MCF7-VP cells; Homo sapiens, MCF7-VP, breast adenocarcinoma, MRP overexpression): 560 nM
- IC50 ratio between resistant and non-resistant cells (MCF7-VP cells; MCF7-VP / MCF7): 1.474
- sensitivity of resistant subline vs parental cells (MCF7-VP cells; MCF7-VP vs MCF7): same sensitivity
- IC50 [4]: 426 nM
- IC50 (NCI-H69 cells): 163 nM
- wound healing density (HUVEC migration) (HUVEC cells [5]): decreased wound healing density in a dose and time dependent manner
- IC50 ratio between resistant and non-resistant cells (N6/ADR cells; N6/ADR / NALM6): 0.895
- IC50 (N6/ADR cells; N6/ADR, acute lymphoblastic leukemia, P-gp overexpression, read-out: IC50): 17 nM
- IC50 (A2780 cells): 16 nM
- IC50 (MM1.R cells): 36 nM
- cytotoxic activity [6]: very potent cytotoxic activity against different cancer cell lines at low nanomolar levels
- IC50 (myeloma cell lines): 14 to 52 nM
- binding to the colchicine binding site [7]: bound to the colchicine binding site
- IC50 (MCF7 cells): 380 nM
- IC50 [8]: 10 nM
- prevention of covalent binding of EBI to the colchicine binding site [9]: prevented the covalent binding of EBI to the colchicine binding site
